Test results: patent US11730705B2, “Small molecule CMKLR1 antagonists in inflammatory disease” (The Board of Trustees of the Leland Stanford Junior …, priority 2019, dated 2023)

Columns and labels:
(hu)CMKLR1 L1.2 cells = biological target: T1, (hu)CMKLR1 L1.2 cells (Homo sapiens, UniProt Q99788); experiment: Chemotaxis assay (chemerin-dependent CMKLR1+ cell migration); assay type: cell-based; conditions: Table 3; migration toward huChemerin, 2 h transwell; read-out: Chemotaxis IC50 μM mean ± SEM (n)
T1 construct: expressed in transfected cells; host or cells: L1.2 pre-B cell lymphoma cells
T1 sequence (Q99788 1-373): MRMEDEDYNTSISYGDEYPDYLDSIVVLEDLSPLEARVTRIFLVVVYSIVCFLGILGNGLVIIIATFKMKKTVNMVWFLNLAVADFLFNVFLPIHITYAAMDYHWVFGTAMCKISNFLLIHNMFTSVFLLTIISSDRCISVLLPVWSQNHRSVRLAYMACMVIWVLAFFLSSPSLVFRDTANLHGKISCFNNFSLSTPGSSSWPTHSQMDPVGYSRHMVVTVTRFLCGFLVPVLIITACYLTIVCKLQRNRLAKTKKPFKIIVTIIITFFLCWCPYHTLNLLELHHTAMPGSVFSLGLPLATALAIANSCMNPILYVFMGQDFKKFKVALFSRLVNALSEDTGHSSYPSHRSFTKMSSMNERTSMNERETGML
Protocol: Cell culture. (hu)CMKLR1 transfectants (generated in L1.2 pre-B cell lymphoma cells) were grown in RPMI 1640 (Corning) supplemented with L-glutamine, penicillin-streptomycin, and 10% BCS and G418-sulfate (KSE Scientific). DiscoverX PathHunter® CHO-K1 CMKLR1 β-Arrestin Cells were grown in RPMI lacking phenol red (Gibco, Life Technologies), supplemented with L-glutamine, penicillin-streptomycin, sodium pyruvate, non-essential amino acid, BCS, hygromycin, and G418-sulfate.
Chemotaxis assay. (hu)CMKLR1 L1.2 cells at 1×10^6 cell/ml were treated with 5 mM sodium butyrate (Sigma) overnight to induce hCMKLR1 expression. The next day, cells were washed in migration media (RPMI+0.5% BSA) and resuspended at 1.5-3×10^6 cell/ml. Cells were pre-incubated at RT for 10 min with various concentrations of α-NETA or test compounds (α-NETA and test compounds were reconstituted in DMSO; final DMSO concentration in each well was 0.1%). 100 ul of cells were added to the upper chamber of a 24-well transwell plate (5 um pore size, Costar). Cells were allowed to migrate toward huChemerin ([…] in migration media, bottom chamber) for 2 h, 37° C., 5% CO2. The number of migrated cells was quantified by flow cytometry (BD LSR2), and live cells were distinguished based on FSC×SSC properties. The background for this assay was typically low with 0 cells migrating to the buffer alone. For each independent trial, data was normalized to the maximum migration per compound tested and an IC50 value was generated using GraphPad Prism software. The average IC50 value for n independent trials (as specified in the table) is reported.

[1] = test system: cytochrome P450 (Cyp) drug metabolizing enzymes; experiment: Time-dependent (mechanism-based) Cyp inhibition; assay type: in vitro ADME, human
Protocol: Cyp enzyme inhibition. Human liver microsomes were pre-incubated with 7 concentrations ([…], duplicate wells) of α-NETA for 30 min.

[2] = biological target: Pregnane X receptor (PXR) (Homo sapiens, UniProt O75469); experiment: Cyp induction (PXR luciferase reporter); assay type: cell-based; conditions: concentrations up to 50 uM
Protocol: Pregnane X receptor (PXR) activation was used as a marker of Cyp induction.
Pregnane X receptor (PXR) activation was used as a marker of Cyp induction. An engineered human hepatoma cell line with a PXR luciferase reporter was incubated with the indicated concentrations of α-NETA, Rifampicin (positive control), or DMSO (negative control), and luciferase activity assessed (Cyprotex/Evotec AG).

Cyp3A4 = Cyp3A4 (Homo sapiens, UniProt P08684); conditions: substrate luciferin-6′ phenylpiperazinylyl; read-out: Cyp3A4 IC50 listed in PubChem; cited from earlier work
[3] = test system: IMQ-induced psoriasis in mice; experiment: IMQ-induced psoriasis model; assay type: in vivo, mouse
Protocol: FIG. 11A-11G. […] Representative images of the same mouse shown over time. […] Mice were treated twice daily with IMQ±dexamethasone (DEX, 200 ug/mouse) 1 h prior to IMQ treatment. […] (FIG. 11G) NK cell (CD45+DX5+CD11b-CD3-CD19-) infiltration into lesional or non-lesional adjacent skin was determined by flow cytometry (6 day timepoint) for IMQ-treated WT and chemerin KO mice. mean±SEM, n=4 mice per genotype, ***p<0.005 by 2-tailed t-test; **p<0.01 by 2-tailed t-test; *p<0.05 by 1-tailed t-test.
FIG. 13A-13D. […] Fold change with respect to day 0 measurements are shown. […] For A-C, n=3 untreated, n=5 IMQ-treated mice of each genotype, mean±SEM, *p<0.05 by 2-tailed t-test.
FIG. 15A-15D. […] IC50 values were determined based on 6-point dose-response curves for each compound. (FIG. 15A) α-NETA. […] (FIG. 15A-15C) mean±SEM, n=3-18 independent experiments. […] 0.2 ml each compound (in 10% captisol) or vehicle control was administered by oral gavage beginning one day prior to psoriasis induction. Back skin thickness was measured daily and normalized to day 0. mean±SEM, n=10 mice for vehicle and α-NETA groups pooled from two independent trials; n=3 mice for (27) and (6) from one trial.

Sequence of Pregnane X receptor (PXR) (O75469 whole entry): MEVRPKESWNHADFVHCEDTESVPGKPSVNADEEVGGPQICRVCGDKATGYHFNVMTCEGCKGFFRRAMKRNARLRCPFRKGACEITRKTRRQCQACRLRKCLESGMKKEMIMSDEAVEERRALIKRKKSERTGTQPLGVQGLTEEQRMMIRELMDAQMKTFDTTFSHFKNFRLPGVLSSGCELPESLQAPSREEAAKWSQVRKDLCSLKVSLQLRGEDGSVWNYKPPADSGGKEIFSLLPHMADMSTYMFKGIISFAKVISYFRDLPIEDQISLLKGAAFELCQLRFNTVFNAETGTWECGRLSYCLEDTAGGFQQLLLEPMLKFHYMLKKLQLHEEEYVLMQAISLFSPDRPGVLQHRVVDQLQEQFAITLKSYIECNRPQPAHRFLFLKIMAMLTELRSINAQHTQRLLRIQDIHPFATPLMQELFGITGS
Sequence of Cyp3A4 (P08684 whole entry): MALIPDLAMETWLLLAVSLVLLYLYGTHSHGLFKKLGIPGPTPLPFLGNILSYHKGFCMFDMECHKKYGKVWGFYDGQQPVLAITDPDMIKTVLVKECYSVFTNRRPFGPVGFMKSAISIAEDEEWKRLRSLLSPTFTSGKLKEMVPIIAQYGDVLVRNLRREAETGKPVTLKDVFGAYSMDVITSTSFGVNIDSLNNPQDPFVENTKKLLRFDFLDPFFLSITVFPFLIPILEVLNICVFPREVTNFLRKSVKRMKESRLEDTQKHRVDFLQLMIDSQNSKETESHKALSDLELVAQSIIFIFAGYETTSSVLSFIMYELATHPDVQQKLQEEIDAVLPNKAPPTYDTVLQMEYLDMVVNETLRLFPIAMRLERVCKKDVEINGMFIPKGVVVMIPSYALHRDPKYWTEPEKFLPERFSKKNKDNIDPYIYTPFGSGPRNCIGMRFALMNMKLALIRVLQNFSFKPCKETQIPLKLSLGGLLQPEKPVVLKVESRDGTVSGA

For `C[N+](C)(C)CCC(=O)c1cccc2ccccc12.[I-]` [α-NETA, 2-(α-naphthoyl) ethyltrimethylammonium iodide], the IC50 ((hu)CMKLR1 L1.2 cells) was 37 ± 8.9 µM, the “time-dependent (mechanism-based) Cyp inhibition” value [1] was “No time-dependent (mechanism-based) Cyp inhibition was detected” and the “PXR activation (marker of Cyp induction)” value [2] was “did not induce substantial PXR activity”. For the same compound, the IC50 (Cyp3A4) was 0.2 µM, the back skin thickening ([3]; 10 mg/kg s.c., 24 h timepoint) was “significantly suppressed” and the back skin acanthosis ([3]; 30 mg/kg p.o. daily, 7 days, vs vehicle control) was “significantly diminished”. The “clinical features of experimental psoriasis” value ([3]; oral gavage in 10% captisol, FIG. 15D) was “suppressed”.
